In brackets after ≈: the same amount, converted by molar mass.

The subject of the assay is Helicobacter pylori. Nature of the assay: Antibacterial activity against Helicobacter pylori after 48 hrs. The class given is functional.
For `C/C(=C/CC[C@H](C)C1CC[C@]2(C)C3=CCC4C(C)(C)[C@@H](O)CC[C@]4(C)C3CC[C@@]12C)C(=O)O` (stereo partly specified), the MBC stood at 220 µg/mL (≈ 482 µM).

Consider `C/C(=C/CC[C@H](C)C1CC[C@]2(C)C3=C(CC[C@@]12C)[C@@]1(C)CC[C@H](O)C(C)(C)C1CC3)C(=O)O` (stereo partly specified), for which the MBC is 202 µg/mL (≈ 442 µM).

Regarding `C/C(=C/CC[C@H](C)C1CC[C@]2(C)C3=C(CC[C@@]12C)[C@@]1(C)CCC(=O)C(C)(C)C1CC3)C(=O)O` (stereo partly specified), the MBC turned out to be 333 µg/mL (≈ 732 µM).

As to `C/C(=C/CC[C@H](C)C1CC[C@]2(C)C3=CCC4C(C)(C)C(=O)CC[C@]4(C)C3CC[C@@]12C)C(=O)O` (stereo partly specified), the MBC worked out at 350 µg/mL (≈ 770 µM).

For `CC1(C)C=C2[C@H]3CC[C@@H]4[C@@]5(C)CCC(=O)C(C)(C)[C@@H]5CC[C@@]4(C)[C@]3(C)CC[C@@]2(C(=O)O)CC1` [MORONIC ACID], the MBC was 310 µg/mL (≈ 682 µM). The MBC values of the last two compounds are within 1.5-fold of each other.

Turning to `CC1(C)CC[C@]2(C(=O)O)CC[C@]3(C)C(=CC[C@@H]4[C@@]5(C)CCC(=O)C(C)(C)[C@@H]5CC[C@]43C)[C@@H]2C1` [OLEANONIC ACID], the MBC is 292 µg/mL (≈ 642 µM).

For orientation: MBC means the smallest concentration meeting the test's criterion for killing. Low values mean more potent killing, high ones less potent killing.

Source of the values: ChEMBL document CHEMBL1142187, “In vitro and in vivo activities of Chios mastic gum extracts and constituents against Helicobacter pylori” (2007).
